Laboratory results published in doi:10.1101/2025.09.18.676322v1 (bioRxiv, 2025).
Residues, ends and D or L forms follow the SMILES beside them.

How the values were obtained:
Caco-2 cell permeability = type: in vitro ADME
[1] = Stability in simulated intestinal fluid; type: in vitro ADME; conditions: pH 6.5
[2] = LogD7.4 by miniaturized shake-flask procedure; type: physicochemical; conditions: miniaturized shake-flask procedure at pH 7.4
[3] = Stability in human plasma; type: in vitro ADME
[4] = Stability in simulated gastric fluid; type: in vitro ADME; conditions: pH 1.6
TREM2 = target: T1, TREM2 (Homo sapiens, UniProt Q9NZC2); test: Spectral shift assay of TREM2 binding; conditions: for TREM2 binding in spectral shift analysis (in words): labeled TREM2 10 nM, PBST pH 7.4, 10 min at room temperature
T1 sequence (Q9NZC2 19-174 limits assumed): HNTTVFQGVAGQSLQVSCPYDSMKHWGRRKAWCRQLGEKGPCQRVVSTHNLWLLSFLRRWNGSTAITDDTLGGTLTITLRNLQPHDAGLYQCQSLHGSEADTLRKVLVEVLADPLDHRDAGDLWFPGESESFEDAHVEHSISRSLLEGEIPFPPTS

[5] = Stability in rat liver microsomes; type: in vitro ADME
[6] = reference compound of the assay; cited from earlier work
[7] = reference compound of the assay; cited from earlier work; remark: listed apart in the source

Molecule: CC(C)[C@@H]1NC(=O)CNC(=O)[C@H](C)NC(=O)[C@H](CO)NC(=O)[C@H](C(C)C)NC(=O)[C@H](CO)NC(=O)[C@H](C(C)C)NC(=O)[C@H](C)NC(=O)CNC(=O)[C@H](CC(=O)O)NC(=O)[C@H](CCCCN)NC(=O)[C@H](CCC(=O)O)NC(=O)[C@H]([C@@H](C)O)NC(=O)[C@H]([C@@H](C)O)NC1=O [TP4] (cyclo(AGVTTEKDGAVSVS); ring closure inferred)
- Papp A→B (Caco-2 cell permeability): 1.32 ×10⁻⁶ cm/s
- Papp B→A (Caco-2 cell permeability): 2.47 ×10⁻⁶ cm/s
- half-life [1]: 5.82 h
- LogD7.4 [2]: 1.03
- remaining at 1 h [3]: 83.1%
- half-life [4]: 0.93 h
- TREM2 binding in spectral shift analysis (in words) (TREM2): measurable responses
- equilibrium dissociation constant (Kd), in words (TREM2; summary statement in the introduction, assay not named): sub-millimolar range
- half-life [5]: 3.94 h

Molecule: cyclo(GNSVNVETGARL) [TP1]
- TREM2 binding in spectral shift analysis (in words) (TREM2): measurable responses

Molecule: CC(C)[N+](C)(CCOC(=O)C1c2ccccc2Oc2ccccc21)C(C)C [propantheline]
- Human plasma stability, t1/2 [6]: 2.6 min

Molecule: cyclo(GSSVNVQTGEVL) [TP2]
- TREM2 binding in spectral shift analysis (in words) (TREM2): measurable responses

Molecule: CC[C@H]1OC(=O)[C@H](C)[C@@H](O[C@H]2C[C@@](C)(OC)[C@@H](O)[C@H](C)O2)[C@H](C)[C@@H](O[C@@H]2O[C@H](C)C[C@H](N(C)C)[C@H]2O)[C@](C)(O)C[C@@H](C)C(=O)[C@H](C)[C@@H](O)[C@]1(C)O [erythromycin]
- Stability in intestinal simulated fluids, t1/2 [7]: 7.55 h

Molecule: cyclo(LPGRLVSLPDGRHLC) [TP3]
- TREM2 binding in spectral shift analysis (in words) (TREM2): did not exhibit detectable binding
